A word on the ΔTm: it is the shift of the melting midpoint relative to a reference.

The subject of this test is Bcl-2 G-quadruplex (2F8U, 23-mer with 15,16-G-to-T mutations) (DNA, G4) GGGCGCGGGAGGAATTGGGCGGG
Description: CD melting at 265 nm. The settings on record: 100 mM KCl; 10 mM Tris-HCl pH 7.2; 3 eq ligand, 2 µM DNA.
For `CC[n+]1c(/C=C/c2ccc3c(c2)c2ccccc2n3CCCCn2ccnc2)sc2ccccc21`, the shift in melting temperature (ΔTm) was determined as 6.3 °C.

Take `CC[n+]1c(/C=C/c2ccc3c(c2)c2ccccc2n3CCCCn2cncn2)sc2ccccc21`: the ΔTm was 3.0 °C.

Regarding `CCn1c2ccccc2c2cc(/C=C/c3sc4ccccc4[n+]3CC)ccc21`, the ΔTm was found to be 3.1 °C.

The values above are taken from PMC11279778 (2024).
